{"source": "ChEMBL document CHEMBL5113515", "about": "“The Discovery of GSK3640254, a Next-Generation Inhibitor of HIV-1 Maturation” (J Med Chem, 2022)", "key": {"Cytochrome P450 2D6": {"target": "Cytochrome P450 2D6 (Homo sapiens, UniProt P10635)", "sequence (P10635 whole entry)": "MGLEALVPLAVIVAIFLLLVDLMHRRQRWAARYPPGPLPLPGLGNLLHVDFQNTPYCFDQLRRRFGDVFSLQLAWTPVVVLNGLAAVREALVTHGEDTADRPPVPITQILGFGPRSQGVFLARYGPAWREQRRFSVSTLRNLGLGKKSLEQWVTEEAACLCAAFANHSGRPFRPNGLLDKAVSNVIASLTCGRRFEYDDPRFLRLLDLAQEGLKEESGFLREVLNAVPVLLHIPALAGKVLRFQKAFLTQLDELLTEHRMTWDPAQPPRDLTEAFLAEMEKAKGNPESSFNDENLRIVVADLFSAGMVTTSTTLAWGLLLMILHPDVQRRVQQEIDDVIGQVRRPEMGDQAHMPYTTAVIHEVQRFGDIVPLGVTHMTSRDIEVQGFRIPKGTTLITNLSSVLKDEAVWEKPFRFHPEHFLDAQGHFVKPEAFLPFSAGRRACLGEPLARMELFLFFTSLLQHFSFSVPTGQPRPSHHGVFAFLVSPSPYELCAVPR", "assay": "Inhibition of CYP2D6 (unknown origin)", "format": "ADME"}, "[1]": {"system": "Human immunodeficiency virus 1", "assay": "Antiviral activity against HIV1 wild type NL (4 to 3) infected in human MT2 cells measured after 4 to 5 days in presence of human serum by dual-luciferase reporter assay", "format": "functional, organism-based", "conditions": "mt2"}, "[2]": {"system": "Human immunodeficiency virus 1", "assay": "Antiviral activity against HIV1 harbouring deltaV370/T371A mutant infected in human MT2 cells measured after 4 to 5 days by dual-luciferase reporter assay", "format": "functional, organism-based", "conditions": "mt2"}, "[3]": {"assay": "AUC in rat at 5 mg/kg, po", "format": "ADME, organism-based", "parameters": "dose 5 mg/kg, route po", "conditions": "in vivo"}, "[4]": {"system": "Human immunodeficiency virus 1", "assay": "Antiviral activity against HIV1 NL (4 to 3) harbouring V362I mutant transfected in human HEK293T cells by dual-luciferase reporter assay", "format": "functional, organism-based", "conditions": "Human immunodeficiency virus 1, HEK-293T"}, "[5]": {"assay": "Half life in overnight fasted mouse at 1 mg/kg, iv", "format": "ADME, organism-based", "conditions": "in vivo"}, "[6]": {"assay": "Half life in overnight fasted Beagle dog at 1 mg/kg, iv", "format": "ADME, organism-based, Canis lupus familiaris", "conditions": "in vivo"}, "[7]": {"assay": "Half life in overnight fasted cynomolgus monkey at 1 mg/kg, iv", "format": "ADME, organism-based, Macaca fascicularis", "conditions": "in vivo"}, "[8]": {"assay": "Oral bioavailability in overnight fasted Beagle dog using spray-dried dispersion at 2 mg/kg", "format": "ADME, organism-based, Canis lupus familiaris", "conditions": "in vivo"}, "[9]": {"assay": "Oral bioavailability in overnight fasted cynomolgus monkey using spray-dried dispersion at 2 mg/kg", "format": "ADME, organism-based, Macaca fascicularis", "conditions": "in vivo"}, "[10]": {"assay": "AUC(0 to t) in overnight fasted Sprague-Dawley rat at 5 mg/kg, po or 1 mg/kg, iv", "format": "ADME, organism-based", "parameters": "dose 5 mg/kg, route po", "conditions": "in vivo"}, "[11]": {"assay": "AUC(0 to t) in overnight fasted cynomolgus monkey at 2 mg/kg, po or 1 mg/kg, iv", "format": "ADME, organism-based, Macaca fascicularis", "parameters": "dose 2 mg/kg, route po", "conditions": "in vivo"}, "[12]": {"assay": "Cmax in overnight fasted mouse at 5 mg/kg, po or 1 mg/kg, iv", "format": "ADME, organism-based", "parameters": "dose 5 mg/kg, route po", "conditions": "in vivo"}, "[13]": {"assay": "Cmax in overnight fasted Sprague-Dawley rat at 5 mg/kg, po or 1 mg/kg, iv", "format": "ADME, organism-based", "parameters": "dose 5 mg/kg, route po", "conditions": "in vivo"}, "[14]": {"assay": "Cmax in overnight fasted Beagle dog at 2 mg/kg, po or 1 mg/kg, iv", "format": "ADME, organism-based, Canis lupus familiaris", "parameters": "dose 2 mg/kg, route po", "conditions": "in vivo"}, "[15]": {"assay": "Cmax in overnight fasted cynomolgus monkey at 2 mg/kg, po or 1 mg/kg, iv", "format": "ADME, organism-based, Macaca fascicularis", "parameters": "dose 2 mg/kg, route po", "conditions": "in vivo"}, "[16]": {"assay": "Metabolic stability in mouse liver microsomes assessed as half life in presence of NADPH at 0.5 uM by LC-MS/MS analysis", "format": "ADME, Microsome"}, "[17]": {"assay": "Metabolic stability in dog liver microsomes assessed as half life in presence of NADPH at 0.5 uM by LC-MS/MS analysis", "format": "ADME, Canis lupus familiaris, Microsome"}, "[18]": {"assay": "Metabolic stability in cynomolgus monkey liver microsomes assessed as half life in presence of NADPH at 0.5 uM by LC-MS/MS analysis", "format": "ADME, Macaca fascicularis, Microsome"}, "Cytochrome P450 1A2": {"target": "T1, Cytochrome P450 1A2 (Homo sapiens, UniProt P05177)", "T1 sequence (P05177 whole entry)": "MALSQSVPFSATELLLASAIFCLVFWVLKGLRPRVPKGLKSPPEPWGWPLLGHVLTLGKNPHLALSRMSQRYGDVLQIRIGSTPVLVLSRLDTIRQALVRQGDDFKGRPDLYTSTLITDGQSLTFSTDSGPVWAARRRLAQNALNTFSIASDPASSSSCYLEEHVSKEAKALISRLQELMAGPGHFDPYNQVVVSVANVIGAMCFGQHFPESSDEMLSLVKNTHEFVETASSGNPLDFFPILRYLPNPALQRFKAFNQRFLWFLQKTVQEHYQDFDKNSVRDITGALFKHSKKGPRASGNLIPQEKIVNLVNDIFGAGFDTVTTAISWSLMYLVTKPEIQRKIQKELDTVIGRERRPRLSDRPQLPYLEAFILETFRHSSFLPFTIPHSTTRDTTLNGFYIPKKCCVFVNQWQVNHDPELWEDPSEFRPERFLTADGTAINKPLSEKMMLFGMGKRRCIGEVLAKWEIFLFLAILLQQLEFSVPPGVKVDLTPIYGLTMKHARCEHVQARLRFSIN", "assay": "Inhibition of CYP1A2 (unknown origin)", "format": "ADME"}, "Cytochrome P450 2B6": {"target": "T2, Cytochrome P450 2B6 (Homo sapiens, UniProt P20813)", "T2 sequence (P20813 whole entry)": "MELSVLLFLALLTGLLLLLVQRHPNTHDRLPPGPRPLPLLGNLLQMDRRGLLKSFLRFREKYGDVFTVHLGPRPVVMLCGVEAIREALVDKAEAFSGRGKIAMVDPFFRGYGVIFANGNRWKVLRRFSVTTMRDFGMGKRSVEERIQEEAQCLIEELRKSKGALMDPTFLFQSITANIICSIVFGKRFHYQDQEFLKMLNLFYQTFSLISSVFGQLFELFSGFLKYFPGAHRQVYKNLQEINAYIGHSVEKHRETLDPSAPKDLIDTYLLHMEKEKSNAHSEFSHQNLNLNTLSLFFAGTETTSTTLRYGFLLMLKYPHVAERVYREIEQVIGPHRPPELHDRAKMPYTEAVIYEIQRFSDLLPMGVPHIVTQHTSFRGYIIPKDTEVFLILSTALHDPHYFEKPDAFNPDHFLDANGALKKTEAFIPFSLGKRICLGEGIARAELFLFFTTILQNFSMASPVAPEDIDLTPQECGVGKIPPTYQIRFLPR", "assay": "Inhibition of CYP2B6 (unknown origin)", "format": "ADME"}, "Cytochrome P450 2C8": {"target": "T3, Cytochrome P450 2C8 (Homo sapiens, UniProt P10632)", "T3 sequence (P10632 whole entry)": "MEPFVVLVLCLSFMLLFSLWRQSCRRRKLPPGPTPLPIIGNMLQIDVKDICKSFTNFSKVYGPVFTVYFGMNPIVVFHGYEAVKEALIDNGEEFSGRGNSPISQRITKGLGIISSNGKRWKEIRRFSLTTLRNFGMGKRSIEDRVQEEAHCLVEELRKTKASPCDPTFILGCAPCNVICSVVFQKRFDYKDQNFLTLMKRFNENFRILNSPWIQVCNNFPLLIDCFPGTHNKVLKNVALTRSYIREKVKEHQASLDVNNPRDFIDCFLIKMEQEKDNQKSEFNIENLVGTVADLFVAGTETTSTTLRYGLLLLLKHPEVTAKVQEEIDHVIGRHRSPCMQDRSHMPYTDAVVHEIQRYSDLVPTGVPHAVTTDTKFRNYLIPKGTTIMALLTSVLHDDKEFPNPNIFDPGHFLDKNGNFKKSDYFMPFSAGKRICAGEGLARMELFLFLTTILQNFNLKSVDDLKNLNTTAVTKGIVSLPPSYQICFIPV", "assay": "Inhibition of CYP2C8 (unknown origin)", "format": "ADME"}, "Cytochrome P450 3A4": {"target": "Cytochrome P450 3A4 (Homo sapiens, UniProt P08684)", "sequence (P08684 whole entry)": "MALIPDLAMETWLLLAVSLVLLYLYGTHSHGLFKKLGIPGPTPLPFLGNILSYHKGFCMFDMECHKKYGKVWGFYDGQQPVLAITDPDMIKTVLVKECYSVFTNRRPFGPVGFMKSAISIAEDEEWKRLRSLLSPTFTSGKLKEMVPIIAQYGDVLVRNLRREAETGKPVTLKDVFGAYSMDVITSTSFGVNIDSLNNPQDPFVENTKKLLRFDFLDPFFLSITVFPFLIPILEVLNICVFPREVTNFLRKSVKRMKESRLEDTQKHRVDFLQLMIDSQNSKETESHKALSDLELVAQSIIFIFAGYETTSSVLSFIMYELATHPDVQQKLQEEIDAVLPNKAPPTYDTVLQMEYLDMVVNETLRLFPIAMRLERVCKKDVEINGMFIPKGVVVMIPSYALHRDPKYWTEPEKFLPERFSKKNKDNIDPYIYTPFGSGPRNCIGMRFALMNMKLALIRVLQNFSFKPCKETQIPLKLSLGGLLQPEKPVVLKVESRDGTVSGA", "assay": "Inhibition of CYP3A4 (unknown origin)", "format": "ADME"}, "CYP3A4": {"target": "CYP3A4 (Homo sapiens, UniProt P08684)", "sequence (P08684 whole entry)": "as above", "assay": "Induction of CYP3A4 in human hepatocyte", "format": "ADME, cell-based", "conditions": "hepatocytes"}, "[19]": {"assay": "Half life in human liver microsomes at […] measured upto 300 mins by LC-MS/MS analysis", "format": "ADME, Microsome"}, "[20]": {"assay": "Drug concentration in overnight fasted mouse plasma at 5 mg/kg, po or 1 mg/kg, iv measured after 24 hrs", "format": "ADME, organism-based"}, "[21]": {"assay": "Drug concentration in overnight fasted cynomolgus monkey plasma at 2 mg/kg, po or 1 mg/kg, iv measured after 24 hrs", "format": "ADME, organism-based, Macaca fascicularis"}}}
{"smiles": "C=C(C)[C@@H]1CC[C@]2(NCCN3CCS(=O)(=O)CC3)CC[C@]3(C)[C@H](CC[C@@H]4[C@@]5(C)CC=C(C6=CC[C@@](CF)(C(=O)O)CC6)C(C)(C)[C@@H]5CC[C@]43C)[C@@H]12", "note": "[FIPRAVIRIMAT]", "values": [{"measurement": "IC50", "setting": "Cytochrome P450 2D6", "result": "> 13.3", "unit": "µM"}, {"measurement": "EC50", "setting": "[1]", "result": 13.9, "unit": "nM"}, {"measurement": "EC50", "setting": "[2]", "result": 3.6, "unit": "nM"}, {"measurement": "AUC", "setting": "[3]", "result": 7.368, "unit": "µM·h"}, {"measurement": "EC50", "setting": "[4]", "result": 2.7, "unit": "nM"}, {"measurement": "half-life", "setting": "[5]", "result": 276, "unit": "min"}, {"measurement": "half-life", "setting": "[6]", "result": 1120, "unit": "min"}, {"measurement": "half-life", "setting": "[7]", "result": 318, "unit": "min"}, {"measurement": "F", "setting": "[8]", "result": 117, "unit": "%"}, {"measurement": "bioavailability", "setting": "[9]", "result": 28, "unit": "%"}, {"measurement": "AUC(0-t)", "setting": "[10]", "result": 7.4, "unit": "µM·h"}, {"measurement": "AUC(0-t)", "setting": "[11]", "result": 7.6, "unit": "µM·h"}, {"measurement": "Cmax", "setting": "[12]", "result": 2700, "unit": "nM"}, {"measurement": "Cmax", "setting": "[13]", "result": 900, "unit": "nM"}, {"measurement": "Cmax", "setting": "[14]", "result": 4.3, "unit": "µM"}, {"measurement": "Cmax", "setting": "[15]", "result": 800, "unit": "nM"}, {"measurement": "half-life at 0.5 µM", "setting": "[16]", "result": "> 120", "unit": "min"}, {"measurement": "half-life at 0.5 µM", "setting": "[17]", "result": "> 120", "unit": "min"}, {"measurement": "half-life at 0.5 µM", "setting": "[18]", "result": 28, "unit": "min"}, {"measurement": "IC50", "setting": "Cytochrome P450 1A2", "result": "> 13.3", "unit": "µM"}, {"measurement": "IC50", "setting": "Cytochrome P450 2B6", "result": "> 13.3", "unit": "µM"}, {"measurement": "IC50", "setting": "Cytochrome P450 2C8", "result": "> 13.3", "unit": "µM"}, {"measurement": "IC50", "setting": "Cytochrome P450 3A4", "result": "> 13.3", "unit": "µM"}, {"measurement": "EC50", "setting": "CYP3A4", "result": "> 5", "unit": "µM"}, {"measurement": "half-life", "setting": "[19]", "result": "> 1440", "unit": "min"}, {"measurement": "concentration at 24 h", "setting": "[20]", "result": 179, "unit": "nM"}, {"measurement": "concentration at 24 h", "setting": "[21]", "result": 68, "unit": "nM"}]}
